Measured values from ChEMBL document CHEMBL1671673, “In vitro activity of colistin (polymyxin E) against 3,480 isolates of gram-negative bacilli obtained from patients in Canadian hospitals in the CANWARD study, 2007-2008” (Antimicrob Agents Chemother, 2009).

How the values were obtained:
Assay type in all cases: functional, organism-based
[1] = system: Pseudomonas aeruginosa; test: Antibacterial activity against Levofloxacin-resistant Pseudomonas aeruginosa assessed as susceptible isolates at minimum inhibitory concentration of >16 ug/ml by CLSI broth microdilution method; set-up: scale not given: the % may be the effect or the level left
[2] = system: Pseudomonas aeruginosa; test: Antibacterial activity against Piperacillin-resistant Pseudomonas aeruginosa assessed as susceptible isolates at minimum inhibitory concentration of 1 ug/ml by CLSI broth microdilution method; set-up: scale not given: the % may be the effect or the level left
[3] = system: Enterobacter cloacae; test: Antibacterial activity against Enterobacter cloacae assessed as susceptible isolates at minimum inhibitory concentration of 8 ug/ml by CLSI broth microdilution method; set-up: scale not given: the % may be the effect or the level left
[4] = system: Klebsiella aerogenes; test: Antibacterial activity against Enterobacter aerogenes assessed as susceptible isolates at minimum inhibitory concentration of 0.5 ug/ml by CLSI broth microdilution method; set-up: scale not given: the % may be the effect or the level left
[5] = system: Klebsiella pneumoniae; test: Antibacterial activity against ESBL-producing Klebsiella pneumoniae assessed as susceptible isolates at minimum inhibitory concentration of 0.25 ug/ml by CLSI broth microdilution method; set-up: scale not given: the % may be the effect or the level left
[6] = system: Klebsiella oxytoca; test: Antibacterial activity against Klebsiella oxytoca assessed as susceptible isolates at minimum inhibitory concentration of 0.25 ug/ml by CLSI broth microdilution method; set-up: scale not given: the % may be the effect or the level left
[7] = system: Klebsiella aerogenes; test: Antibacterial activity against Enterobacter aerogenes assessed as susceptible isolates at minimum inhibitory concentration of 0.25 ug/ml by CLSI broth microdilution method; set-up: scale not given: the % may be the effect or the level left
[8] = system: Klebsiella oxytoca; test: Antibacterial activity against Klebsiella oxytoca assessed as susceptible isolates at minimum inhibitory concentration of 0.12 ug/ml by CLSI broth microdilution method; set-up: scale not given: the % may be the effect or the level left
[9] = system: Pseudomonas aeruginosa; test: Antibacterial activity against Levofloxacin-resistant Pseudomonas aeruginosa assessed as susceptible isolates at minimum inhibitory concentration of 8 ug/ml by CLSI broth microdilution method; set-up: scale not given: the % may be the effect or the level left
[10] = system: Acinetobacter baumannii; test: Antibacterial activity against Acinetobacter baumannii assessed as susceptible isolates at minimum inhibitory concentration of 0.12 ug/ml by CLSI broth microdilution method; set-up: scale not given: the % may be the effect or the level left
[11] = system: Pseudomonas aeruginosa; test: Antibacterial activity against Gentamicin-resistant Pseudomonas aeruginosa assessed as susceptible isolates at minimum inhibitory concentration of >16 ug/ml by CLSI broth microdilution method; set-up: scale not given: the % may be the effect or the level left
[12] = system: Klebsiella aerogenes; test: Antibacterial activity against Enterobacter aerogenes assessed as susceptible isolates at minimum inhibitory concentration of 2 ug/ml by CLSI broth microdilution method; set-up: scale not given: the % may be the effect or the level left
[13] = system: Stenotrophomonas maltophilia; test: Antibacterial activity against Stenotrophomonas maltophilia assessed as susceptible isolates at minimum inhibitory concentration of <=0.06 ug/ml by CLSI broth microdilution method; set-up: scale not given: the % may be the effect or the level left
[14] = system: Pseudomonas aeruginosa; test: Antibacterial activity against Pseudomonas aeruginosa assessed as susceptible isolates at minimum inhibitory concentration of 0.25 ug/ml by CLSI broth microdilution method; set-up: scale not given: the % may be the effect or the level left
[15] = system: Klebsiella pneumoniae; test: Antibacterial activity against ESBL-producing Klebsiella pneumoniae assessed as susceptible isolates at minimum inhibitory concentration of 16 ug/ml by CLSI broth microdilution method; set-up: scale not given: the % may be the effect or the level left
[16] = system: Pseudomonas aeruginosa; test: Antibacterial activity against Piperacillin-resistant Pseudomonas aeruginosa assessed as susceptible isolates at minimum inhibitory concentration of 4 ug/ml by CLSI broth microdilution method; set-up: scale not given: the % may be the effect or the level left
[17] = system: Pseudomonas aeruginosa; test: Antibacterial activity against Cefepime-resistant Pseudomonas aeruginosa assessed as susceptible isolates at minimum inhibitory concentration of 4 ug/ml by CLSI broth microdilution method; set-up: scale not given: the % may be the effect or the level left
[18] = system: Escherichia coli; test: Antibacterial activity against ESBL-producing Escherichia coli assessed as susceptible isolates at minimum inhibitory concentration of 0.12 ug/ml by CLSI broth microdilution method; set-up: scale not given: the % may be the effect or the level left
[19] = system: Escherichia coli; test: Antibacterial activity against ESBL-producing Escherichia coli assessed as susceptible isolates at minimum inhibitory concentration of <=0.06 ug/ml by CLSI broth microdilution method; set-up: scale not given: the % may be the effect or the level left
[20] = system: Serratia marcescens; test: Antibacterial activity against Serratia marcescens assessed as susceptible isolates at minimum inhibitory concentration of 4 ug/ml by CLSI broth microdilution method; set-up: scale not given: the % may be the effect or the level left
[21] = system: Pseudomonas aeruginosa; test: Antibacterial activity against Levofloxacin-resistant Pseudomonas aeruginosa assessed as susceptible isolates at minimum inhibitory concentration of 1 ug/ml by CLSI broth microdilution method; set-up: scale not given: the % may be the effect or the level left
[22] = system: Escherichia coli; test: Antibacterial activity against ESBL-producing Escherichia coli assessed as susceptible isolates at minimum inhibitory concentration of 8 ug/ml by CLSI broth microdilution method; set-up: scale not given: the % may be the effect or the level left
[23] = system: Pseudomonas aeruginosa; test: Antibacterial activity against tazobactam-resistant Pseudomonas aeruginosa assessed as susceptible isolates at minimum inhibitory concentration of 1 ug/ml by CLSI broth microdilution method; set-up: scale not given: the % may be the effect or the level left
[24] = system: Stenotrophomonas maltophilia; test: Antibacterial activity against Stenotrophomonas maltophilia assessed as susceptible isolates at minimum inhibitory concentration of 2 ug/ml by CLSI broth microdilution method; set-up: scale not given: the % may be the effect or the level left
[25] = system: Stenotrophomonas maltophilia; test: Antibacterial activity against Stenotrophomonas maltophilia assessed as susceptible isolates at minimum inhibitory concentration of >16 ug/ml by CLSI broth microdilution method; set-up: scale not given: the % may be the effect or the level left
[26] = system: Pseudomonas aeruginosa; test: Antibacterial activity against Gentamicin-resistant Pseudomonas aeruginosa assessed as susceptible isolates at minimum inhibitory concentration of 16 ug/ml by CLSI broth microdilution method; set-up: scale not given: the % may be the effect or the level left
[27] = system: Pseudomonas aeruginosa; test: Antibacterial activity against Levofloxacin-resistant Pseudomonas aeruginosa assessed as susceptible isolates at minimum inhibitory concentration of 0.5 ug/ml by CLSI broth microdilution method; set-up: scale not given: the % may be the effect or the level left
[28] = system: Klebsiella pneumoniae; test: Antibacterial activity against ESBL-producing Klebsiella pneumoniae assessed as susceptible isolates at minimum inhibitory concentration of 0.5 ug/ml by CLSI broth microdilution method; set-up: scale not given: the % may be the effect or the level left
[29] = system: Enterobacter cloacae; test: Antibacterial activity against Enterobacter cloacae assessed as susceptible isolates at minimum inhibitory concentration of 1 ug/ml by CLSI broth microdilution method; set-up: scale not given: the % may be the effect or the level left
[30] = system: Acinetobacter baumannii; test: Antibacterial activity against Acinetobacter baumannii assessed as susceptible isolates at minimum inhibitory concentration of 16 ug/ml by CLSI broth microdilution method; set-up: scale not given: the % may be the effect or the level left
[31] = system: Enterobacter cloacae; test: Antibacterial activity against Enterobacter cloacae assessed as susceptible isolates at minimum inhibitory concentration of 2 ug/ml by CLSI broth microdilution method; set-up: scale not given: the % may be the effect or the level left
[32] = system: Pseudomonas aeruginosa; test: Antibacterial activity against Pseudomonas aeruginosa assessed as intermediate isolates at 4 ug/ml by CLSI broth microdilution method
[33] = system: Klebsiella oxytoca; test: Antibacterial activity against Klebsiella oxytoca assessed as susceptible isolates at minimum inhibitory concentration of 16 ug/ml by CLSI broth microdilution method; set-up: scale not given: the % may be the effect or the level left
[34] = system: Pseudomonas aeruginosa; test: Antibacterial activity against Amikacin-resistant Pseudomonas aeruginosa assessed as susceptible isolates at minimum inhibitory concentration of 1 ug/ml by CLSI broth microdilution method; set-up: scale not given: the % may be the effect or the level left
[35] = system: Escherichia coli; test: Antibacterial activity against ESBL-producing Escherichia coli assessed as susceptible isolates at minimum inhibitory concentration of >16 ug/ml by CLSI broth microdilution method; set-up: scale not given: the % may be the effect or the level left
[36] = system: Acinetobacter baumannii; test: Antibacterial activity against Acinetobacter baumannii assessed as susceptible isolates at minimum inhibitory concentration of 0.5 ug/ml by CLSI broth microdilution method; set-up: scale not given: the % may be the effect or the level left
[37] = system: Enterobacter cloacae; test: Antibacterial activity against Enterobacter cloacae assessed as susceptible isolates at minimum inhibitory concentration of >16 ug/ml by CLSI broth microdilution method; set-up: scale not given: the % may be the effect or the level left
[38] = system: Pseudomonas aeruginosa; test: Antibacterial activity against Pseudomonas aeruginosa assessed as susceptible isolates at minimum inhibitory concentration of 0.12 ug/ml by CLSI broth microdilution method; set-up: scale not given: the % may be the effect or the level left
[39] = system: Pseudomonas aeruginosa; test: Antibacterial activity against Cefepime-resistant Pseudomonas aeruginosa assessed as susceptible isolates at minimum inhibitory concentration of 0.5 ug/ml by CLSI broth microdilution method; set-up: scale not given: the % may be the effect or the level left
[40] = system: Enterobacter cloacae; test: Antibacterial activity against Enterobacter cloacae assessed as susceptible isolates at minimum inhibitory concentration of <=0.06 ug/ml by CLSI broth microdilution method; set-up: scale not given: the % may be the effect or the level left

Q: For COLISTIN, which Activity [1] is on record?
A: 100%

Q: And the Activity [2]?
A: 37.5%

Q: What about the Activity [3] of the same sequence?
A: 85.5%

Q: And the Activity [4]?
A: 73%

Q: What about the Activity [5] of the same sequence?
A: 10.5%

Q: And the Activity [6]?
A: 18.5%

Q: What about the Activity [7] of the same sequence?
A: 18.9%

Q: What about the Activity [8] of the same sequence?
A: 0%

Q: And the Activity [9]?
A: 98.2%

Q: What about the Activity [10] of the same sequence?
A: 0%

Q: And the Activity [11]?
A: 100%

Q: And the Activity [12]?
A: 97.3%

Q: What about the Activity [13] of the same sequence?
A: 0%

Q: What about the Activity [14] of the same sequence?
A: 0%

Q: What about the Activity [15] of the same sequence?
A: 98.1%

Q: What about the Activity [16] of the same sequence?
A: 100%

Q: What about the Activity [17] of the same sequence?
A: 100%

Q: And the Activity [18]?
A: 1.2%

Q: What about the Activity [19] of the same sequence?
A: 0.1%

Q: And the Activity [20]?
A: 1.9%

Q: What about the Activity [21] of the same sequence?
A: 30.7%

Q: What about the Activity [22] of the same sequence?
A: 99.5%

Q: What about the Activity [23] of the same sequence?
A: 37.5%

Q: And the Activity [24]?
A: 15.7%

Q: And the Activity [25]?
A: 100%

Q: And the Activity [26]?
A: 99%

Q: And the Activity [27]?
A: 1.8%

Q: What about the Activity [28] of the same sequence?
A: 77.9%

Q: And the Activity [29]?
A: 82.3%

Q: And the Activity [30]?
A: 96.8%

Q: What about the Activity [31] of the same sequence?
A: 83.9%

Q: And the Activity [32]?
A: 7.3%

Q: What about the Activity [33] of the same sequence?
A: 98.1%

Q: What about the Activity [34] of the same sequence?
A: 42.1%

Q: What about the Activity [35] of the same sequence?
A: 100%

Q: What about the Activity [36] of the same sequence?
A: 6.5%

Q: What about the Activity [37] of the same sequence?
A: 100%

Q: What about the Activity [38] of the same sequence?
A: 0%

Q: What about the Activity [39] of the same sequence?
A: 6.8%

Q: What about the Activity [40] of the same sequence?
A: 0%
